≈ marks a conversion by molar mass, not a printed value. Where a name gives a salt, the structure may show the parent alone. Read-outs that look alike come from different tables or passages of the source.
Test system: pathogenic bacteria
Test: MIC by microdilution broth method (NCCLS M7-A4), in vitro antibacterial activity
Type: cell-based
Description: Minimal inhibitory concentration (MIC) has been an indicator of in vitro antibacterial activity widely used in the art. The in vitro antimicrobial activity of the compounds was determined by the microdilution broth method following the test method from the National Committee for Clinical Laboratory Standards (NCCLS). This method is described in the NCCLS Document M7-A4, Vol. 17, No. 2, “Methods for Dilution Antimicrobial Susceptibility Test for Bacteria that Grow Aerobically—Fourth Edition”, which is incorporated herein by reference.
In this method two-fold serial dilutions of drug in cation adjusted Mueller-Hinton broth are added to wells in microdilution trays. The test organisms are prepared by adjusting the turbidity of actively growing broth cultures so that the final concentration of test organism after it is added to the wells is approximately 5×10^4 CFU/well.
Following inoculation of the microdilution trays, the trays are incubated at 35° C. for 16-20 hours and then read. […] The amount of growth in the wells containing the test compound is compared with the amount of growth in the growth-control wells (no test compound) used in each tray. As set forth in Table 5, compounds of the present invention were tested against a variety of pathogenic bacteria resulting in a range of activities depending on the organism tested.

[1] = Staphylococcus aureus, Organism A: Staphylococcus aureus OC4172, read-out: MIC
[2] = Streptococcus pneumoniae, ATCC49619, Organism E: Streptococcus pneumoniae ATCC 49619, read-out: MIC
[3] = Streptococcus pneumoniae, Organism B: fluoroquinolone-resistant clinical isolate of Streptococcus pneumoniae (QRDR amino acid substitutions)
[4] = Streptococcus pneumoniae, Organism C: fluoroquinolone-resistant clinical isolate of Streptococcus pneumoniae (QRDR amino acid substitutions)
[5] = Streptococcus pneumoniae, Organism D: fluoroquinolone-resistant clinical isolate of Streptococcus pneumoniae (QRDR amino acid substitutions)

Row | Compound | MIC [1] [µg/mL] | MIC [2] [µg/mL] | MIC [3] [µg/mL] | MIC [4] [µg/mL] | MIC [5] [µg/mL] | MIC (Organism A: Staphylococcus aureus OC4172) [µg/mL] | MIC (Organism B: fluoroquinolone-resistant clinical isolate of Streptococcus pneumoniae (QRDR amino acid substitutions)) [µg/mL] | MIC (Organism C: fluoroquinolone-resistant clinical isolate of Streptococcus pneumoniae (QRDR amino acid substitutions)) [µg/mL] | MIC (Organism D: fluoroquinolone-resistant clinical isolate of Streptococcus pneumoniae (QRDR amino acid substitutions)) [µg/mL] | MIC (Organism E: Streptococcus pneumoniae ATCC 49619) [µg/mL]
1 | NCC(F)=C1CCN(c2nc3c(cc2F)c(=O)c(C(=O)O)cn3C2CC2)CC1 [Compound 1, 7-[4-(2-Amino-1-fluoro-ethylidene)-piperidin-1-yl]-1-cyclopropyl-6-fluoro-4-oxo-1,4-dihydro-[1,8]naphthyridine-3-carboxylic acid] | 0.03 (≈ 0.0768 µM) | 0.12 (≈ 0.307 µM) | 2 (≈ 5.12 µM) | 0.5 (≈ 1.28 µM) | 1 (≈ 2.56 µM) |  |  |  |  | 
2 | CC(CN)=C1CCN(c2nc3c(cc2F)c(=O)c(C(=O)O)cn3C2CC2)CC1 [Compound 2, 7-[4-(2-Amino-1-methyl-ethylidene)-piperidin-1-yl]-1-cyclopropyl-6-fluoro-4-oxo-1,4-dihydro-[1,8]naphthyridine-3-carboxylic acid] | 0.06 (≈ 0.155 µM) | 0.12 (≈ 0.311 µM) | 0.25 (≈ 0.647 µM) | 1 (≈ 2.59 µM) | 1 (≈ 2.59 µM) |  |  |  |  | 
3 | NCC(Cl)=C1CCN(c2nc3c(cc2F)c(=O)c(C(=O)O)cn3C2CC2)CC1 [Compound 3, 7-[4-(2-Amino-1-chloro-ethylidene)-piperidin-1-yl]-1-cyclopropyl-6-fluoro-4-oxo-1,4-dihydro-[1,8]naphthyridine-3-carboxylic acid] | 0.06 (≈ 0.147 µM) | 0.12 (≈ 0.295 µM) | 1 (≈ 2.46 µM) | 0.25 (≈ 0.614 µM) | 1 (≈ 2.46 µM) |  |  |  |  | 
4 | NCC(F)=C1CCN(c2nc3c(cc2F)c(=O)c(C(=O)O)cn3-c2ccc(F)cc2F)CC1 [Compound 4, 7-[4-(2-Amino-1-fluoro-ethylidene)-piperidin-1-yl]-1-(2,4-difluoro-phenyl)-6-fluoro-4-oxo-1,4-dihydro-[1,8]naphthyridine-3-carboxylic acid] | 0.06 (≈ 0.13 µM) | 0.25 (≈ 0.541 µM) |  | 1 (≈ 2.16 µM) | 2 (≈ 4.33 µM) |  |  |  |  | 
5 | NCC(F)=C1CCN(c2cc3c(cc2F)c(=O)c(C(=O)O)cn3C2CC2)CC1 [Compound 5, 7-[4-(2-Amino-1-fluoro-ethylidene)-piperidin-1-yl]-l - cyclopropyl-6-fluoro-4-oxo-1,4-dihydro-quinoline-3-carboxylic acid trifluoroacetic acid salt] | 0.03 |  |  | 1 |  |  |  |  |  | 
6 | COc1c(N2CCC(=C(C)CN)CC2)c(F)cc2c(=O)c(C(=O)O)cn(C3CC3)c12 [Compound 6, 7-[4-(2-Amino-1-methyl-ethylidene)-piperidin-1-yl]-1-cyclopropyl-6-fluoro-8-methoxy-4-oxo-1,4-dihydro-quinoline-3-carboxylic acid] | 0.03 (≈ 0.0722 µM) | 0.06 (≈ 0.144 µM) |  | 0.5 (≈ 1.2 µM) |  |  |  |  |  | 
7 | COc1c(N2CCC(=C(Cl)CN)CC2)c(F)cc2c(=O)c(C(=O)O)cn(C3CC3)c12 [Compound 7, 7-[4-(2-Amino-1-chloro-ethylidene)-piperidin-1-yl]-1-cyclopropyl-6-fluoro-8-methoxy-4-oxo-1,4-dihydro-quinoline-3-carboxylic Acid] | 0.015 (≈ 0.0344 µM) | 0.06 (≈ 0.138 µM) | 0.06 (≈ 0.138 µM) | 0.12 (≈ 0.275 µM) | 0.12 (≈ 0.275 µM) |  |  |  |  | 
8 | CC1COc2c(N3CCC(=C(F)CN)CC3)c(F)cc3c(=O)c(C(=O)O)cn1c23 (stereo not shown) [Compound 8, 9-[4-(2-Amino-1-fluoro-ethylidene)-piperidin-1-yl]-8-fluoro-3-methyl-6-oxo-2,3-dihydro-6H-1-oxa-3a-aza-phenalene-5-carboxylic acid] | 0.25 (≈ 0.617 µM) | 0.5 (≈ 1.23 µM) | 2 (≈ 4.93 µM) | 8 (≈ 19.7 µM) | 8 (≈ 19.7 µM) |  |  |  |  | 
9 | CC(CN)=C1CCN(c2c(F)cc3c(=O)c(C(=O)O)cn4c3c2OCC4C)CC1 (stereo not shown) [Compound 9, 9-[4-(2-Amino-1-methyl-ethylidene)-piperidin-1-yl]-8-fluoro-3-methyl-6-oxo-2,3-dihydro-6H-1-oxa-3a-aza-phenalene-5-carboxylic acid] | 0.5 (≈ 1.25 µM) | 1 (≈ 2.49 µM) | 4 (≈ 9.96 µM) | > 16 | > 16 |  |  |  |  | 
10 | COc1c(N2CCC(=C(F)CN)CC2)ccc2c(=O)c(C(=O)O)cn(C3CC3)c12 [Compound 10, 7-[4-(2-Amino-1-fluoro-ethylidene)-piperidin-1-yl]-1-cyclopropyl-8-methoxy-4-oxo-1,4-dihydro-quinoline-3-carboxylic acid] | 0.03 (≈ 0.0747 µM) | 0.12 (≈ 0.299 µM) |  | 0.5 (≈ 1.25 µM) | 1 (≈ 2.49 µM) |  |  |  |  | 
11 | COc1c(N2CC/C(=C(/F)CN)C(C)C2)c(F)cc2c(=O)c(C(=O)O)cn(C3CC3)c12 (stereo not shown) [Compound 11, (Z)-7-[4-(2-Amino-1-fluoro-ethylidene)-3-methyl-piperidin-1-yl]-1-cyclopropyl-6-fluoro-8-methoxy-4-oxo-1,4-dihydro-quinoline-3-carboxylic acid] | 0.03 (≈ 0.0692 µM) | 0.12 (≈ 0.277 µM) |  | 0.5 (≈ 1.15 µM) | 1 (≈ 2.31 µM) |  |  |  |  | 
12 | COc1c(N2CCC(=C(F)CN)CC2)c(F)cc2c(=O)c(C(=O)O)cn(C3CC3)c12 [Compound 12, (E)-7-[4-(2-Amino-1-fluoro-ethylidene)-piperidin-1-yl]-1-cyclopropyl-7-6-fluoro-8-methoxy-4-oxo-1,4-dihydro-quinoline-3-carboxylic acid] |  |  |  |  |  | 0.12 (≈ 0.286 µM) | 2 (≈ 4.77 µM) | 4 (≈ 9.54 µM) | 4 (≈ 9.54 µM) | 0.5 (≈ 1.19 µM)
13 | COc1c(N2CC/C(=C(\Cl)CN)C2)c(F)cc2c(=O)c(C(=O)O)cn(C3CC3)c12 [Compound 14, (E)-7-[3-(2-Amino-1-chloro-ethylidene)-pyrrolidin-1-yl]-1-cyclopropyl-6-fluoro-8-methoxy-4-oxo-1,4-dihydro-quinoline-3-carboxylic acid] | 0.03 (≈ 0.0711 µM) | 0.25 (≈ 0.593 µM) | 2 (≈ 4.74 µM) | 1 (≈ 2.37 µM) | 1 (≈ 2.37 µM) |  |  |  |  | 
14 | NCC=C1CCN(c2nc3c(cc2F)c(=O)c(C(=O)O)cn3C2CC2)CC1 [Compound 59, 7-[4-(2-Amino-ethylidene)-piperidin-1-yl]-1-cyclopropyl-6-fluoro-4-oxo-1,4-dihydro-[1,8]naphthyridine-3-carboxylic acid] | 0.06 (≈ 0.161 µM) | 0.5 (≈ 1.34 µM) | 8 (≈ 21.5 µM) | 8 (≈ 21.5 µM) |  |  |  |  |  | 
15 | NCC=C1CCN(c2nc3c(cc2F)c(=O)c(C(=O)O)cn3C2CC2)CC1O (stereo not shown) [Compound 60, 7-[4-(2-Amino-ethylidene)-3-hydroxy-piperidin-1-yl]-1-cyclopropyl-6-fluoro-4-oxo-1,4-dihydro-[1,8]naphthyridine-3-carboxylic acid] | 2 (≈ 5.15 µM) | 16 (≈ 41.2 µM) |  | 16 (≈ 41.2 µM) |  |  |  |  |  | 
16 | CON=C1CN(c2nc3c(cc2F)c(=O)c(C(=O)O)cn3C2CC2)CCC1=CCN [Compound 61, 7-[4-(2-Amino-ethylidene)-3-methoxyimino-piperidin-1-yl]-1-cyclopropyl-6-fluoro-4-oxo-1,4-dihydro-[1,8]naphthyridine-3-carboxylic acid] | 0.12 (≈ 0.289 µM) | 1 (≈ 2.41 µM) |  | 16 (≈ 38.5 µM) |  |  |  |  |  | 
17 | CC(CN)=C1CCN(c2nc3c(cc2F)c(=O)c(C(=O)O)cn3C2CC2)CC1O (stereo not shown) [Compound 62, 7-[4-(2-Amino-1-methyl-ethylidene)-3-hydroxy-piperidin-1-yl]-1-cyclopropyl-6-fluoro-4-oxo-1,4-dihydro-[1,8]naphthyridine-3-carboxylic acid] | 2 (≈ 4.97 µM) | 8 (≈ 19.9 µM) | > 16 | > 16 |  |  |  |  |  | 
18 | CC(CN)=C1CCN(c2cc3c(cc2F)c(=O)c(C(=O)O)cn3C2CC2)CC1 [Compound 64, 7-[4-(2-Amino-1-methyl-ethylidene)-piperidin-1-yl]-1-cyclopropyl-6-fluoro-4-oxo-1,4-dihydro-quinoline-3-carboxylic acid] | 0.12 (≈ 0.311 µM) | 1 (≈ 2.59 µM) | 8 (≈ 20.8 µM) | 2 (≈ 5.19 µM) | 8 (≈ 20.8 µM) |  |  |  |  | 

Reference: patent US20090156577A1, “7-AMINO ALKYLIDENYL-HETEROCYCLIC QUINOLONES AND NAPHTHYRIDONES” (priority 2004, published 2009)
